Experimental data from patent US20260273072A1, “NOVEL PLK1 DEGRADATION INDUCING COMPOUND” (UPPTHERA, INC., priority 2023, published 2026).

Legend:
Format in all cases: cell-based
NCI-H526 cell line = experiment: Cell viability assay for NCI-H526 cell line (EZ-Cytox); settings: Homo sapiens, NCI-H526, 120 h; H526 cells, 5 days, 3000 nM to 0.46 nM
How it was run: (§1)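 IC50 values are binned (A: <30 nM, B: <50 nM, C: <100 nM, D: <200 nM, E: <400 nM) from EZ-Cytox read-outs. Cells were exposed to compound for 5 days, then shaken 3 min and absorbance taken at […].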

PLK1 = target: T1, PLK1 (Homo sapiens, UniProt P53350); experiment: Luciferase assay for PLK1 in HeLa LgBit (Plk1-HiBit KI) cell line; settings: 300 nM compound, luminescence after 9 hours
T1 construct: endogenous in cells; host or cells: HeLa LgBit (Plk1-HiBit KI): HeLa stably expressing LgBit, with a CRISPR/Cas9 knock-in of HiBit at the endogenous PLK1 locus
How it was run: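 Compounds (300 nM) were added with Endurazine to thymidine-synchronised cells (2 mM, 24 h block, then release and 18 h culture), and luminescence at 470-480 nm was followed live. Cells: HeLa stably expressing LgBit, HiBit knocked into native PLK1 C-terminus. Value: luminescence ratio versus DMSO control.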

MRC-5 cell line = experiment: Cell viability assay for MRC-5 cell line (EZ-Cytox); settings: Homo sapiens, MRC5, 120 h; MRC-5 normal cell line, 5 days, 10000 nM to 1.52 nM; read-out: Activity: IC50 value, cell viability, MRC-5 cell line (Exemplary Compounds)
Protocol: 4. Cell Viability Assay for MRC-5 Cell Line
(1) Culture of MRC-5 Cell Line
The MRC-5 cell line was purchased from KCLB. Passage of cultured cells was maintained within P15.
(2) Treatment of Compounds of the Present Invention
Then, it was cultured in 37° C. CO2 incubator (Thermo Fisher Scientific) for 5 days.
(3) Cytotoxicity Experiment
CO2 incubator for 4 hours.

NCI-H69 cell line = experiment: Cell viability assay for NCI-H69 cell line (EZ-Cytox); settings: Homo sapiens, NCI-H69, 120 h; H69 cells, 5 days, 3000 nM to 0.46 nM
How it was run: as §1

T1 sequence (P53350 whole entry): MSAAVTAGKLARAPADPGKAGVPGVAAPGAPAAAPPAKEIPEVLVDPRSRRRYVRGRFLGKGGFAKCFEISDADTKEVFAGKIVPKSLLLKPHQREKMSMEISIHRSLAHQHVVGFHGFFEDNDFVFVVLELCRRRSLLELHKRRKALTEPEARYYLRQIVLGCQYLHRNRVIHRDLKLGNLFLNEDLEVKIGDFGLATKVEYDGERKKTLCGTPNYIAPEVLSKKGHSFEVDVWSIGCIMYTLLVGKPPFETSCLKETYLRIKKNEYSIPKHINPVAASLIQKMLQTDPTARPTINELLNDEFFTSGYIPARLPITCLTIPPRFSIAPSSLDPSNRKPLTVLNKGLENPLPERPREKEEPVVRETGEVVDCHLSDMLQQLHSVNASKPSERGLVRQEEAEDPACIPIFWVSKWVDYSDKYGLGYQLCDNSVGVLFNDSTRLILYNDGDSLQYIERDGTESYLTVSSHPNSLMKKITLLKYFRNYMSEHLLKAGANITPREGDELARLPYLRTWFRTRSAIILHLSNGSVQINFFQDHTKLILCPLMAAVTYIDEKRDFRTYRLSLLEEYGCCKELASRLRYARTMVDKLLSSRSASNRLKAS

Activity: ratio of the luminescence value of compound treatment group to DMSO treatment group (PLK1) | SMILES | IC50 (NCI-H526 cell line) [nM] | IC50 (MRC-5 cell line) [nM] | IC50 (NCI-H69 cell line) [nM]
++ (++: <0.5) | COc1cc(C(=O)NC2CC3(CCN(CC4CCN(c5cc(OC)c(NC6CCC(=O)NC6=O)cc5F)CC4)CC3)C2)c(F)cc1Nc1ncc2c(n1)N(C(C)C)CC(F)(F)C(=O)N2C (stereo not drawn) [Compound 52, 4-((7,7-difluoro-9-isopropyl-5-methyl-6-oxo-6,7,8,9-tetrahydro-5H-pyrimido[4,5-b][1,4]diazepin-2-yl)amino)-N-(7-((1-(4-((2,6-dioxopiperidin-3-yl)amino)-2-fluoro-5-methoxyphenyl)piperidin-4-yl)methyl)-7-azaspiro[3.5]nonan-2-yl)-2-fluoro-5-methoxybenzamide] | < 30 | > 10000 | < 30
++ (++: <0.5) | COc1cc(C(=O)NC2CC3(CCN(CC4CCN(c5cc(OC)c(NC6CCC(=O)NC6=O)cc5F)CC4)CC3)C2)ncc1Nc1ncc2c(n1)N(C(C)C)CC(F)(F)C(=O)N2C (stereo not drawn) [Compound 53, 5-((7,7-difluoro-9-isopropyl-5-methyl-6-oxo-6,7,8,9-tetrahydro-5H-pyrimido[4,5-b][1,4]diazepin-2-yl)amino)-N-(7-((1-(4-((2,6-dioxopiperidin-3-yl)amino)-2-fluoro-5-methoxyphenyl)piperidin-4-yl)methyl)-7-azaspiro[3.5]nonan-2-yl)-4-methoxypicolinamide] | < 30 | > 10000 | < 50
+++ (+++: <0.3) | COc1cc(C(=O)NN2CCC(CCN3CCN(c4ccc(NC5CCC(=O)NC5=O)c(OC)c4F)CC3)CC2)ccc1Nc1ncc2c(n1)N(C1CCCC1)CC(F)(F)C(=O)N2C (stereo not drawn) [Compound 54, 4-((9-cyclopentyl-7,7-difluoro-5-methyl-6-oxo-6,7,8,9-tetrahydro-5H-pyrimido[4,5-b][1,4]diazepin-2-yl)amino)-N-(4-(2-(4-(4-((2,6-dioxopiperidin-3-yl)amino)-2-fluoro-3-methoxyphenyl)piperazin-1-yl)ethyl)piperidin-1-yl)-3-methoxybenzamide] | < 30 | > 10000 | < 30
+++ (+++: <0.3) | COc1cc(C(=O)NN2CCC(CCN3CCN(c4ccc(NC5CCC(=O)NC5=O)c(F)c4OC)CC3)CC2)ccc1Nc1ncc2c(n1)N(C1CCCC1)CC(F)(F)C(=O)N2C (stereo not drawn) [Compound 55, 4-((9-cyclopentyl-7,7-difluoro-5-methyl-6-oxo-6,7,8,9-tetrahydro-5H-pyrimido[4,5-b][1,4]diazepin-2-yl)amino)-N-(4-(2-(4-(4-((2,6-dioxopiperidin-3-yl)amino)-3-fluoro-2-methoxyphenyl)piperazin-1-yl)ethyl)piperidin-1-yl)-3-methoxybenzamide] | < 30 | > 10000 | < 30
++ (++: <0.5) | COc1cc(C(=O)NN2CCC(CCN3CCN(c4cc(F)c(NC5CCC(=O)NC5=O)cc4OC)CC3)CC2)ccc1Nc1ncc2c(n1)N(C1CCCC1)CC(F)(F)C(=O)N2C (stereo not drawn) [Compound 56, 4-((9-cyclopentyl-7,7-difluoro-5-methyl-6-oxo-6,7,8,9-tetrahydro-5H-pyrimido[4,5-b][1,4]diazepin-2-yl)amino)-N-(4-(2-(4-(4-((2,6-dioxopiperidin-3-yl)amino)-5-fluoro-2-methoxyphenyl)piperazin-1-yl)ethyl)piperidin-1-yl)-3-methoxybenzamide] | < 30 | > 10000 | < 30
+++ (+++: <0.3) | COc1cc(C(=O)NN2CCC(CCN3CCN(c4cc(F)c(NC5CCC(=O)NC5=O)cc4F)CC3)CC2)ccc1Nc1ncc2c(n1)N(C1CCCC1)CC(F)(F)C(=O)N2C (stereo not drawn) [Compound 57, 4-((9-cyclopentyl-7,7-difluoro-5-methyl-6-oxo-6,7,8,9-tetrahydro-5H-pyrimido[4,5-b][1,4]diazepin-2-yl)amino)-N-(4-(2-(4-(4-((2,6-dioxopiperidin-3-yl)amino)-2,5-difluorophenyl)piperazin-1-yl)ethyl)piperidin-1-yl)-3-methoxybenzamide] | < 30 | > 10000 | < 30
+++ (+++: <0.3) | COc1cc(C(=O)NN2CCC(CCN3CCN(c4cc(F)c(NC5CCC(=O)NC5=O)cc4F)CC3)CC2)ccc1Nc1ncc2c(n1)N(C(C)C)CC(F)(F)C(=O)N2C (stereo not drawn) [Compound 58, 4-((7,7-difluoro-9-isopropyl-5-methyl-6-oxo-6,7,8,9-tetrahydro-5H-pyrimido[4,5-b][1,4]diazepin-2-yl)amino)-N-(4-(2-(4-(4-((2,6-dioxopiperidin-3-yl)amino)-2,5-difluorophenyl)piperazin-1-yl)ethyl)piperidin-1-yl)-3-methoxybenzamide] | < 30 | > 10000 | < 30
++ (++: <0.5) | COc1cc(C(=O)NN2CCC(CCN3CCN(c4cc(F)c(NC5CCC(=O)NC5=O)cc4F)CC3)CC2)c(F)cc1Nc1ncc2c(n1)N(C1CCCC1)CC(F)(F)C(=O)N2C (stereo not drawn) [Compound 59, 4-((9-cyclopentyl-7,7-difluoro-5-methyl-6-oxo-6,7,8,9-tetrahydro-5H-pyrimido[4,5-b][1,4]diazepin-2-yl)amino)-N-(4-(2-(4-(4-((2,6-dioxopiperidin-3-yl)amino)-2,5-difluorophenyl)piperazin-1-yl)ethyl)piperidin-1-yl)-2-fluoro-5-methoxybenzamide] | < 30 | > 10000 | < 50
++ (++: <0.5) | COc1cc(C(=O)NN2CCC(CCN3CCN(c4cc(F)c(NC5CCC(=O)NC5=O)cc4F)CC3)CC2)c(F)cc1Nc1ncc2c(n1)N(C(C)C)CC(F)(F)C(=O)N2C (stereo not drawn) [Compound 60, 4-((7,7-difluoro-9-isopropyl-5-methyl-6-oxo-6,7,8,9-tetrahydro-5H-pyrimido[4,5-b][1,4]diazepin-2-yl)amino)-N-(4-(2-(4-(4-((2,6-dioxopiperidin-3-yl)amino)-2,5-difluorophenyl)piperazin-1-yl)ethyl)piperidin-1-yl)-2-fluoro-5-methoxybenzamide] | < 50 | > 10000 | < 50
+++ (+++: <0.3) | COc1cc(C(=O)NC2CCN(CCC3CCN(c4cc(F)c(NC5CCC(=O)NC5=O)cc4F)CC3)CC2)ccc1Nc1ncc2c(n1)N(C1CCCC1)CC(F)(F)C(=O)N2C (stereo not drawn) [Compound 63, 4-((9-cyclopentyl-7,7-difluoro-5-methyl-6-oxo-6,7,8,9-tetrahydro-5H-pyrimido[4,5-b][1,4]diazepin-2-yl)amino)-N-(1-(2-(1-(4-((2,6-dioxopiperidin-3-yl)amino)-2,5-difluorophenyl)piperidin-4-yl)ethyl)piperidin-4-yl)-3-methoxybenzamide] | < 30 | > 10000 | < 50
++ (++: <0.5) | CCN1CC(F)(F)C(=O)N(C)c2cnc(Nc3ccc(C(=O)NC4CCN(CCC5CCN(c6cc(F)c(NC7CCC(=O)NC7=O)cc6F)CC5)CC4)cc3OC)nc21 (stereo not drawn) [Compound 64, N(1-(2-(1-(4-((2,6-dioxopiperidin-3-yl)amino)-2,5-difluorophenyl)piperidin-4-yl)ethyl)piperidin-4-yl)-4-((9-ethyl-7,7-difluoro-5-methyl-6-oxo-6,7,8,9-tetrahydro-5H-pyrimido[4,5-b][1,4]diazepin-2-yl)amino)-3-methoxybenzamide] | < 30 | > 10000 | < 30
++ (++: <0.5) | COc1cc(-c2nnc(CN3CCC(CCN4CCN(c5cc(F)c(NC6CCC(=O)NC6=O)cc5F)CC4)CC3)o2)ccc1Nc1ncc2c(n1)N(C1CCCC1)CC(F)(F)C(=O)N2C (stereo not drawn) [Compound 65, 3-((4-(4-(2-(1-((5-(4-((9-cyclopentyl-7,7-difluoro-5-methyl-6-oxo-6,7,8,9-tetrahydro-5H-pyrimido[4,5-b][1,4]diazepin-2-yl)amino)-3-methoxyphenyl)-1,3,4-oxadiazol-2-yl)methyl)piperidin-4-yl)ethyl)piperazin-1-yl)-2,5-difluorophenyl)amino)piperidine-2,6-dione] | < 100 | > 10000 | < 200
